From US20220354963A1, “EXTRACELLULAR VESICLE LINKED TO MOLECULES AND USES THEREOF” (Codiak BioSciences, Inc., priority 2019, published 2022)

Tests used:
Assay type in all cases: cell-based, human
STAT3 mRNA [1] = assay: STAT3 mRNA expression in IL-6 stimulated PANC-1 cells, branched DNA assay; details: for STAT3 Inhibition 2 nM / STAT3 Inhibition 20 nM: 2 point DR data; for IC50: 5 point DR data, Lipofectamine2000 transfection, 48 hr, read-out: STAT3 PANC1 IC50 Prism
Description: (§1) The ASOs of the present disclosure were tested for their ability to reduce STAT3 mRNA expression in IL-6 stimulated PANC-1 cells. The PANC-1 cells were grown in cell culture media and seeded onto a 96 well plate at a density of 20,000 cells/well. ASOs were tested in two separate cohorts: 2 doses or 5 doses were given to the PANC-1 cells (See TABLE 3) at final concentrations of 20 nM and 2 nM, respectively. The assay used Lipofectamine2000 transfection and a 48 hr treatment cycle, with incubation at 37° C. and 5% C02. Analysis of the mRNA expression was then carried out using a branched DNA assay.

STAT3 mRNA [2] = assay: as above; details: 5 point DR data
GAPDH [3] = assay: GAPDH inhibition in PANC-1 cells, same assay; details: 2 point DR data
Description: as §1, with “The” for “The ASOs of the present disclosure were tested for their ability to reduce STAT3 mRNA expression in IL-6 stimulated PANC-1 cells. The”

NRas mRNA = NRas mRNA expression in HEK-293 cells, branched DNA assay; parameters: NRAS max inhibition: unit not given here; details: for IC20 / IC50 / IC80 / max. inhib. [%]:: HEK293 cells: dose-response; for NRAS max inhibition: Table 6
Description: as §1, with “NRas” for “STAT3”, “HEK-293” for “IL-6 stimulated PANC-1”, “HEK-293” for “PANC-1”, “TABLES 4, 5 and 6)” for “TABLE 3)”, “nM” for “nM,”

GAPDH [4] = assay: GAPDH inhibition in HEK-293 cells, same assay; parameters: GAPDH max inhibition: unit not given here; details: for 2D GAPDH 20 nM inhibition: 2D (dual-dose); for GAPDH max inhibition: Table 6

Substance | STAT3 Inhibition 2 nM (STAT3 mRNA [1]) | STAT3 Inhibition 20 nM (STAT3 mRNA [1]) | IC50 (STAT3 mRNA [1]) | STAT3 Max inihibition 24 nM (STAT3 mRNA [2]) | GAPDH Inhibition 20 nM (GAPDH [3]) | IC20 (NRas mRNA) | IC50 (NRas mRNA) | IC80 (NRas mRNA) | max. inhib. [%]: (NRas mRNA) | 2D GAPDH 20 nM inhibition (GAPDH [4]) | GAPDH max inhibition (GAPDH [4]) | NRAS max inhibition (NRas mRNA)
102 (TTGGCTCGATCCAGGAGTGT; chemistry not given here) [compound 102] | 82.7 | 89.5 | 0.473 nM | 78.02 | 16.00 |  |  |  |  |  |  | 
103 (CTCCTGTTGGCTCGATCCAG; chemistry not given here) [compound 103] | 82.5 | 95.8 | 0.465 nM | 89.93 | 10.00 |  |  |  |  |  |  | 
105 (GGATAGTCCTCTAAGTGCAT; chemistry not given here) [compound 105] | 79.4 | 91.6 | 1.47 nM | 85.61 | 13.00 |  |  |  |  |  |  | 
107 (TAGCGTGGCTAGATCCACAT; chemistry not given here) [compound 107] | 79.0 | 87.7 | 0.037 nM | 70.92 | 8.00 |  |  |  |  |  |  | 
112 (GCGAAGATCCACACGGCCAT; chemistry not given here) [compound 112] | 70.0 | 91.0 | 1.04 nM | 86.32 | −25.00 |  |  |  |  |  |  | 
114 (GTTGATCGCAGCGAAGATCC; chemistry not given here) [compound 114] | 66.4 | 87.0 | 0.814 nM | 84.94 | 10.00 |  |  |  |  |  |  | 
115 (CTGTTGATCGCAGCGAAGAT; chemistry not given here) [compound 115] | 65.2 | 90.8 | 0.796 nM | 78.99 | 3.00 |  |  |  |  |  |  | 
185 (TCCGAGAGTGTTGCCTCGCA; chemistry not given here) [compound 185] |  |  |  |  |  | 0.074 nM | 0.349 nM | 3.8 nM | 85.4% |  |  | 
200 (GTTATGGTCAGTTAATAGAA; chemistry not given here) [compound 200] |  |  |  |  |  | 0.041 nM | 0.16 nM | 0.666 nM | 97.6% | 33.52 | 38.68 | 98.68
201 (CACCAGGGAACATCTCGGGG; chemistry not given here) [compound 201] |  |  |  |  |  | 0.024 nM | 0.1 nM | 0.455 nM | 97.2% | 16.86 | 45.30 | 98.45
206 (GAGCCTGGTTGGAAGCTGCA; chemistry not given here) [compound 206] |  |  |  |  |  | 0.117 nM | 0.471 nM | 2.58 nM | 90.9% | 40.87 | 44.21 | 94.95
218 (GTTACGCTGTTTGGCCG; chemistry not given here) [compound 218] |  |  |  |  |  | 0.139 nM | 0.427 nM | 1.94 nM | 88.0% | 28.11 | 25.71 | 90.00
223 (CGCTGTTTGGCCGGGCAGAA; chemistry not given here) [compound 223] |  |  |  |  |  | 0.121 nM | 0.581 nM | 35.4 nM | 80.8% | 20.53 | 18.44 | 85.75
224 (GCTGTTTGGCCGGGCAGAAA; chemistry not given here) [compound 224] |  |  |  |  |  | 0.639 nM | 1.93 nM |  | 72.0% |  |  | 
227 (GTTTGGCCGGGCAGAAACTC; chemistry not given here) [compound 227] |  |  |  |  |  | 0.087 nM | 0.413 nM | 4.05 nM | 86.3% | 24.56 | 18.30 | 87.95
231 (GCCGGGCAGAAACTCCGCTG; chemistry not given here) [compound 231] |  |  |  |  |  | 0.18 nM | 0.538 nM | 2.1 nM | 90.4% | 36.92 | 29.21 | 93.63
238 (CTCCCCGAGATGTTCCCTGG; chemistry not given here) [compound 238] |  |  |  |  |  | 0.139 nM | 0.646 nM | 4.79 nM | 88.9% | 22.48 | 26.33 | 90.92
239 (AGGCTCCCCGAGATGTTCCC; chemistry not given here) [compound 239] |  |  |  |  |  | 0.027 nM | 0.159 nM | 1.46 nM | 90.4% | 39.01 | 37.62 | 94.35
247 (AAACAGCGTAACCCCTTCTT; chemistry not given here) [compound 247] |  |  |  |  |  | 0.122 nM | 0.561 nM | 4.14 nM | 88.8% | 25.39 | 25.35 | 90.09
248 (CAAACAGCGTAACCCCTTCT; chemistry not given here) [compound 248] |  |  |  |  |  | 0.051 nM | 0.288 nM | 2.4 nM | 91.0% | 30.77 | 37.96 | 93.72
250 (GCCAAACAGCGTAACCCCTT; chemistry not given here) [compound 250] |  |  |  |  |  | 0.173 nM | 0.715 nM | 5.68 nM | 86.3% | 27.30 | 33.44 | 88.02
252 (CCAAACAGCGTAACC; chemistry not given here) [compound 252] |  |  |  |  |  | 0.072 nM | 0.296 nM | 1.95 nM | 88.4% | 13.40 | 29.98 | 91.49
253 (CGGCCAAACAGCGTAAC; chemistry not given here) [compound 253] |  |  |  |  |  | 0.108 nM | 0.461 nM | 2.79 nM | 90.4% | 40.44 | 29.34 | 94.40
254 (GCCAAACAGCGTAAC; chemistry not given here) [compound 254] |  |  |  |  |  | 0.067 nM | 0.336 nM | 2.11 nM | 93.4% | 20.10 | 32.96 | 96.11
257 (TCTGCCCGGCCAAACAGCGT; chemistry not given here) [compound 257] |  |  |  |  |  | 0.069 nM | 0.364 nM | 3.67 nM | 87.3% | 21.09 | 30.55 | 91.79
264 (GCGGAGTTTCTGCCCGGCCA; chemistry not given here) [compound 264] |  |  |  |  |  | 0.039 nM | 0.229 nM | 2.43 nM | 88.5% | 10.43 | 26.13 | 91.73
SEQ ID NO: 232: NRas ASO, starting nucleotide 400, length 20 (CCGGGCAGAAACTCCGCTGA; chemistry not given here) |  |  |  |  |  | 0.048 nM | 0.245 nM | 1.59 nM | 93.2% | 36.10 | 53.16 | 95.91
SEQ ID NO: 236: NRas ASO, starting nucleotide 421, length 20 (CCCCGAGATGTTCCCTGGTG; chemistry not given here) |  |  |  |  |  | 0.053 nM | 0.349 nM | 4.78 nM | 87.3% | 34.05 | 40.06 | 91.51
